Measurements taken from US8993542B2, “Methods of treating viral infections” (priority 2008, dated 2015).

Experiments:
HIV-1IIIB = experiment: Two-drug combination antiviral assay in CEM cells (CPE), MacSynergy II; format: cell-based; conditions: for Antagonism Volume, Result 1 / Antagonism Volume, Result 2 / Antagonism Volume, Result 3 / Mean Antagonism Volume (n = 3) / Mean Synergy Volume (n = 3) / Synergy Volume, Result 1 / Synergy Volume, Result 2 / Synergy Volume, Result 3: in combination with CMX157, CEM-SS cells, 95% confidence
HIV = experiment: microbe, parasite or virus in culture; format: cell-based
[1] = Human immunodeficiency virus 1, PANEL 1, WT
[2] = Human immunodeficiency virus 1, PANEL 2, WT
[3] = Human immunodeficiency virus 1, PANEL 3, 6 TAMs, no 184
[4] = Human immunodeficiency virus 1, PANEL 6, 6 TAMs + 184
[5] = Human immunodeficiency virus 1, PANEL 7, 184V
[6] = Human immunodeficiency virus 1, PANEL 9, 69ins, no 184
[7] = Human immunodeficiency virus 1, PANEL 12, 69ins + 184
[8] = Human immunodeficiency virus 1, PANEL 14, 65R, no 184
[9] = Human immunodeficiency virus 1, PANEL 15, 65R + 184V
[10] = Human immunodeficiency virus 1, PANEL 17, L74V
[11] = Human immunodeficiency virus 1, PANEL 19, L74V + M184V
[12] = Human immunodeficiency virus 1, PANEL 26, 151M, no 184
[13] = Human immunodeficiency virus 1, PANEL 28, 151M + 184
[14] = Human immunodeficiency virus 1, PANEL 29, L74V − SDM
[15] = Human immunodeficiency virus 1, PANEL 30, M184V − SDM
[16] = Human immunodeficiency virus 1, PANEL 31, K65R − SDM
[17] = Human immunodeficiency virus 1, PANEL 33, T215Y
[18] = Human immunodeficiency virus 1, PANEL 34, T215Y + M184V
[19] = Human immunodeficiency virus 1, PANEL 35, M41L + T215Y
[20] = Human immunodeficiency virus 1, PANEL 37, M41L + T215Y + M184V
[21] = Human immunodeficiency virus 1, PANEL 38, M41L + L210W + T215Y
[22] = Human immunodeficiency virus 1, PANEL 39, M41L + L210W + T215Y
[23] = Human immunodeficiency virus 1, PANEL 40, M41L + L210W + T215Y + M184V
[24] = Human immunodeficiency virus 1, PANEL 41, M41L + L210W + T215Y + M184V
[25] = Human immunodeficiency virus 1, PANEL 42, D67N + K70R
[26] = Human immunodeficiency virus 1, PANEL 44, D67N + K70R + T215F + K219E + M184V
[27] = Human immunodeficiency virus 1, PANEL 45, L210W + T215Y
[28] = Human immunodeficiency virus 1, PANEL 46, D67N + K70E
[29] = Human immunodeficiency virus 1, PANEL 47, D67N + K70E + M184V
[30] = Human immunodeficiency virus 1, PANEL 48, K70E + M184V
[31] = PANEL 40, M41L + L210W + T215Y + M184V
[32] = PANEL 41, M41L + L210W + T215Y + M184V
[33] = PANEL 44, D67N + K70R + T215F + K219E + M184V

Nc1nc(=O)n(C2CSC(CO)O2)cc1F (centres unmarked) [FTC, 2-hydroxymethyl-5-(5-fluorocytosin-1-yl)-1,3-oxathiolane]
Antagonism Volume, Result 1 (HIV-1IIIB): 0 nM^2 %, μM^2 % or nMμM % | Antagonism Volume, Result 2 (HIV-1IIIB): 0 nM^2 %, μM^2 % or nMμM % | Antagonism Volume, Result 3 (HIV-1IIIB): 0 nM^2 %, μM^2 % or nMμM % | Mean Antagonism Volume (n = 3) (HIV-1IIIB): 0 nM^2 %, μM^2 % or nMμM % | Mean Synergy Volume (n = 3) (HIV-1IIIB): 72.5 nM^2 %, μM^2 % or nMμM % | Synergy Volume, Result 1 (HIV-1IIIB): 61.5 nM^2 %, μM^2 % or nMμM % | Synergy Volume, Result 2 (HIV-1IIIB): 72.0 nM^2 %, μM^2 % or nMμM % | Synergy Volume, Result 3 (HIV-1IIIB): 84.1 nM^2 %, μM^2 % or nMμM % | Interpretation of Antiviral Results (MacSynergy) (HIV-1IIIB; two-drug combination (with CMX157; control d4T/RBV), CEM-SS cells, listed as emtricitabine): slightly synergistic | IC50 (HIV; [1]): 0.89 µM | IC50 (HIV; [2]): 1.57 µM | IC50 (HIV; [3]): 5.73 µM | IC50 (HIV; [4]): > 100 µM | IC50 (HIV; [5]): > 100 µM | IC50 (HIV; [6]): 29.6 µM | IC50 (HIV; [7]): > 100 µM | IC50 (HIV; [8]): 19.3 µM | IC50 (HIV; [9]): > 100 µM | IC50 (HIV; [10]): 2.14 µM | IC50 (HIV; [11]): > 100 µM | IC50 (HIV; [12]): 34.7 µM | IC50 (HIV; [13]): > 100 µM | IC50 (HIV; [14]): 1.68 µM | IC50 (HIV; [15]): > 100 µM | IC50 (HIV; [16]): 12.9 µM | IC50 (HIV; [17]): 2.64 µM | IC50 (HIV; [18]): > 100 µM | IC50 (HIV; [19]): 3.13 µM | IC50 (HIV; [20]): > 100 µM | IC50 (HIV; [21]): 4.22 µM | IC50 (HIV; [22]): 2.16 µM | IC50 (HIV; [23]): > 100 µM | IC50 (HIV; [24]): > 100 µM | IC50 (HIV; [25]): 3.28 µM | IC50 (HIV; [26]): > 100 µM | IC50 (HIV; [27]): 2.62 µM | IC50 (HIV; [28]): 3.39 µM | IC50 (HIV; [29]): > 100 µM | IC50 (HIV; [30]): > 100 µM | IC50 Fold Change (HIV; PANEL 1, WT): 0.78 | IC50 Fold Change (HIV; PANEL 2, WT): 1.38 | IC50 Fold Change (HIV; PANEL 3, 6 TAMs, no 184): 5.02 | IC50 Fold Change (HIV; PANEL 6, 6 TAMs + 184): >87.6048 | IC50 Fold Change (HIV; PANEL 7, 184V): >87.6048 | IC50 Fold Change (HIV; PANEL 9, 69ins, no 184): 26.00 | IC50 Fold Change (HIV; PANEL 12, 69ins + 184): >87.6048 | IC50 Fold Change (HIV; PANEL 14, 65R, no 184): 17.00 | IC50 Fold Change (HIV; PANEL 15, 65R + 184V): >87.6048 | IC50 Fold Change (HIV; PANEL 17, L74V): 1.87 | IC50 Fold Change (HIV; PANEL 19, L74V + M184V): >87.6048 | IC50 Fold Change (HIV; PANEL 26, 151M, no 184): 30.00 | IC50 Fold Change (HIV; PANEL 28, 151M + 184): >87.6048 | IC50 Fold Change (HIV; PANEL 29, L74V − SDM): 1.47 | IC50 Fold Change (HIV; PANEL 30, M184V − SDM): >87.6048 | IC50 Fold Change (HIV; PANEL 31, K65R − SDM): 11.00 | IC50 Fold Change (HIV; PANEL 33, T215Y): 2.31 | IC50 Fold Change (HIV; PANEL 34, T215Y + M184V): >87.6048 | IC50 Fold Change (HIV; PANEL 35, M41L + T215Y): 2.74 | IC50 Fold Change (HIV; PANEL 37, M41L + T215Y + M184V): >87.6048 | IC50 Fold Change (HIV; PANEL 38, M41L + L210W + T215Y): 3.70 | IC50 Fold Change (HIV; PANEL 39, M41L + L210W + T215Y): 1.89 | IC50 Fold Change (HIV; [31]): >87.6048 | IC50 Fold Change (HIV; [32]): >87.6048 | IC50 Fold Change (HIV; PANEL 42, D67N + K70R): 2.87 | IC50 Fold Change (HIV; [33]): >87.6048 | IC50 Fold Change (HIV; PANEL 45, L210W + T215Y): 2.29 | IC50 Fold Change (HIV; PANEL 46, D67N + K70E): 2.97 | IC50 Fold Change (HIV; PANEL 47, D67N + K70E + M184V): >87.6048 | IC50 Fold Change (HIV; PANEL 48, K70E + M184V): >87.6048

Cc1cn([C@H]2C=C[C@@H](CO)O2)c(=O)[nH]c1=O [d4T, 2′,3′-didehydro-3′-deoxythymidine]
Antagonism Volume, Result 1 (HIV-1IIIB): 0 nM^2 %, μM^2 % or nMμM % | Antagonism Volume, Result 2 (HIV-1IIIB): 0 nM^2 %, μM^2 % or nMμM % | Antagonism Volume, Result 3 (HIV-1IIIB): −1.83 nM^2 %, μM^2 % or nMμM % | Mean Antagonism Volume (n = 3) (HIV-1IIIB): −0.61 nM^2 %, μM^2 % or nMμM % | Mean Synergy Volume (n = 3) (HIV-1IIIB): 15.2 nM^2 %, μM^2 % or nMμM % | Synergy Volume, Result 1 (HIV-1IIIB): 4.47 nM^2 %, μM^2 % or nMμM % | Synergy Volume, Result 2 (HIV-1IIIB): 40.6 nM^2 %, μM^2 % or nMμM % | Synergy Volume, Result 3 (HIV-1IIIB): 0.39 nM^2 %, μM^2 % or nMμM % | IC50 (HIV; [1]): 0.51 µM | IC50 (HIV; [2]): 0.48 µM | IC50 (HIV; [3]): 2.17 µM | IC50 (HIV; [4]): 1.35 µM | IC50 (HIV; [5]): 0.46 µM | IC50 (HIV; [6]): 6.39 µM | IC50 (HIV; [7]): 6.79 µM | IC50 (HIV; [8]): 0.77 µM | IC50 (HIV; [9]): 0.59 µM | IC50 (HIV; [10]): 0.6 µM | IC50 (HIV; [11]): 0.42 µM | IC50 (HIV; [12]): 5.54 µM | IC50 (HIV; [13]): 4.22 µM | IC50 (HIV; [14]): 0.63 µM | IC50 (HIV; [15]): 0.4 µM | IC50 (HIV; [16]): 0.83 µM | IC50 (HIV; [17]): 0.83 µM | IC50 (HIV; [18]): 0.65 µM | IC50 (HIV; [19]): 0.84 µM | IC50 (HIV; [20]): 0.86 µM | IC50 (HIV; [21]): 1.22 µM | IC50 (HIV; [22]): 1.09 µM | IC50 (HIV; [23]): 0.88 µM | IC50 (HIV; [24]): 1.05 µM | IC50 (HIV; [25]): 0.78 µM | IC50 (HIV; [26]): 0.79 µM | IC50 (HIV; [27]): 0.94 µM | IC50 (HIV; [28]): 0.56 µM | IC50 (HIV; [29]): 0.42 µM | IC50 (HIV; [30]): 0.39 µM | IC50 Fold Change (HIV; PANEL 1, WT): 0.86 | IC50 Fold Change (HIV; PANEL 2, WT): 0.81 | IC50 Fold Change (HIV; PANEL 3, 6 TAMs, no 184): 3.66 | IC50 Fold Change (HIV; PANEL 6, 6 TAMs + 184): 2.28 | IC50 Fold Change (HIV; PANEL 7, 184V): 0.77 | IC50 Fold Change (HIV; PANEL 9, 69ins, no 184): 11.00 | IC50 Fold Change (HIV; PANEL 12, 69ins + 184): 11.00 | IC50 Fold Change (HIV; PANEL 14, 65R, no 184): 1.30 | IC50 Fold Change (HIV; PANEL 15, 65R + 184V): 0.99 | IC50 Fold Change (HIV; PANEL 17, L74V): 1.01 | IC50 Fold Change (HIV; PANEL 19, L74V + M184V): 0.71 | IC50 Fold Change (HIV; PANEL 26, 151M, no 184): 9.33 | IC50 Fold Change (HIV; PANEL 28, 151M + 184): 7.10 | IC50 Fold Change (HIV; PANEL 29, L74V − SDM): 1.07 | IC50 Fold Change (HIV; PANEL 30, M184V − SDM): 0.68 | IC50 Fold Change (HIV; PANEL 31, K65R − SDM): 1.40 | IC50 Fold Change (HIV; PANEL 33, T215Y): 1.40 | IC50 Fold Change (HIV; PANEL 34, T215Y + M184V): 1.10 | IC50 Fold Change (HIV; PANEL 35, M41L + T215Y): 1.41 | IC50 Fold Change (HIV; PANEL 37, M41L + T215Y + M184V): 1.46 | IC50 Fold Change (HIV; PANEL 38, M41L + L210W + T215Y): 2.06 | IC50 Fold Change (HIV; PANEL 39, M41L + L210W + T215Y): 1.84 | IC50 Fold Change (HIV; [31]): 1.48 | IC50 Fold Change (HIV; [32]): 1.77 | IC50 Fold Change (HIV; PANEL 42, D67N + K70R): 1.31 | IC50 Fold Change (HIV; [33]): 1.32 | IC50 Fold Change (HIV; PANEL 45, L210W + T215Y): 1.58 | IC50 Fold Change (HIV; PANEL 46, D67N + K70E): 0.94 | IC50 Fold Change (HIV; PANEL 47, D67N + K70E + M184V): 0.70 | IC50 Fold Change (HIV; PANEL 48, K70E + M184V): 0.65
